Source: US20220023306A1, “USE OF A PPAR-DELTA AGONIST IN THE TREATMENT OF FATTY ACID OXIDATION DISORDERS (FAOD)” (Reneo Pharmaceuticals, Inc., priority 2019, published 2022)

What was measured:
Assay type in all cases: cell-based
human muscle cell lines = experiment: fatty acid oxidation in human muscle cell lines
hPPARα = target: T1, hPPARα (Homo sapiens, UniProt Q07869); experiment: PPAR transient transactivation assay, hPPARα
T1 construct: expressed in transfected cells; host or cells: HEK293
T1 sequence (Q07869 239-466 limits assumed): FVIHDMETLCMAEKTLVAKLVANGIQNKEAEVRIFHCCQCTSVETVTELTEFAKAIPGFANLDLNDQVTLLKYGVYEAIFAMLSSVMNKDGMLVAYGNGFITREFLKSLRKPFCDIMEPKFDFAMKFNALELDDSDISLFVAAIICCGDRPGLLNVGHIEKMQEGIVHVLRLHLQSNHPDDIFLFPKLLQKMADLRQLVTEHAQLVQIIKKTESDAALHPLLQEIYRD
Experimental: (§1) “Activation” herein is defined as the abovementioned downstream response, which in the case of PPAR's is gene transcription. Gene transcription, in some cases, is measured indirectly as downstream production of proteins reflective of the activation of the particular PPAR subtype under study. Alternatively, an artificial reporter construct, in some cases, is employed to study the activation of the individual PPAR's expressed in cells. The ligand binding domain of the particular receptor to be studied, in some embodiments, is fused to the DNA binding domain of a transcription factor, which produces convenient laboratory readouts, such as the yeast GAL4 transcription factor DNA binding domain. The fusion protein, in some cases, is transfected into a laboratory cell line along with a Gal4 enhancer, which effects the expression of the luciferase protein. When such a system is transfected into a laboratory cell line, binding of a receptor agonist to the fusion protein will result in light emission.
(§2) The PPAR transient transactivation assay, in some cases, is based on transient transfection into human HEK293 cells of two plasmids encoding a chimeric test protein and a reporter protein respectively. […] The amount of luciferase protein is measured by light emission after addition of the appropriate substrate. […]

rat muscle cell lines = experiment: fatty acid oxidation in rat muscle cell lines
hPPARγ = target: T2, hPPARγ (Homo sapiens, UniProt P37231); experiment: PPAR transient transactivation assay, hPPARγ
T2 construct: expressed in transfected cells; host or cells: HEK293
T2 sequence (P37231 238-503 limits assumed): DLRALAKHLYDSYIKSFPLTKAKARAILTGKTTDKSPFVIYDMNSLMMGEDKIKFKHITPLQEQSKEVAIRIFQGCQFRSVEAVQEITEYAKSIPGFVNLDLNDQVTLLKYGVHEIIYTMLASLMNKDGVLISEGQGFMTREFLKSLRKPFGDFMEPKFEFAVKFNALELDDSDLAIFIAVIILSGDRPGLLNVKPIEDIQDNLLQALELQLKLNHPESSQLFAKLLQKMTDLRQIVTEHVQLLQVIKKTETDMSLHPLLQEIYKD
Experimental: as §1, §2

With `Cc1cc(OC/C=C(/c2ccc(F)cc2)c2ccc(C#CCN3CCOCC3)cc2)ccc1OCC(=O)O` [Compound 1, (E)-[4-[3-(4-Fluorophenyl)-3-[4-[3-(morpholin-4-yl)propynyl]phenyl]allyloxy]-2-methyl-phenoxy]acetic acid] the fatty acid oxidation (human muscle cell lines) was “dose-dependent increase”, the “activity on PPARα in transactivation assays” value (hPPARα) was “negligible activity” and the “type of agonism on PPARα” value (hPPARα) was “partial agonist”. For the same compound, the fatty acid oxidation (rat muscle cell lines) was “dose-dependent increase”, the “activity on PPARγ in transactivation assays” value (hPPARγ) was “negligible activity” and the “type of agonism on PPARγ” value (hPPARγ) was “partial agonist”.
